Data from ChEMBL document CHEMBL4831516, “Development of Membrane-Active Honokiol/Magnolol Amphiphiles as Potent Antibacterial Agents against Methicillin-Resistant Staphylococcus aureus (MRSA)” (J Med Chem, 2021).

Assays:
Salmonella enterica [1] = experiment: Antibacterial activity against Salmonella enterica 8389 assessed as inhibition of visible growth incubated for 16 to 18 hrs by CLSI method; type: functional; conditions: time 16-18 hrs, read-out: MIC100
Micrococcus luteus = experiment: Antibacterial activity against Micrococcus luteus assessed as inhibition of visible growth incubated for 16 to 18 hrs by CLSI method; type: functional; conditions: time 16-18 hrs, read-out: MIC100
Staphylococcus aureus [2] = experiment: Antibacterial activity against methicillin-resistant Staphylococcus aureus clinical isolate M-14 assessed as inhibition of visible growth incubated for 16 to 18 hrs by CLSI method; type: functional; conditions: time 16-18 hrs, read-out: MIC100
[3] = Selectivity index, HC50 for hemolytic activity in sheep RBC to MIC for antibacterial activity against Staphylococcus aureus ATCC29213; type: toxicity; conditions: sheep red blood cells (erythrocytes), read-out: Selectivity Index
Staphylococcus aureus [4] = experiment: Antibacterial activity against methicillin-resistant Staphylococcus aureus clinical isolate M-18 assessed as inhibition of visible growth incubated for 16 to 18 hrs by CLSI method; type: functional; conditions: time 16-18 hrs, read-out: MIC100
Staphylococcus aureus [5] = experiment: Antibacterial activity against methicillin-resistant Staphylococcus aureus clinical isolate M-19 assessed as inhibition of visible growth incubated for 16 to 18 hrs by CLSI method; type: functional; conditions: time 16-18 hrs, read-out: MIC100
Bacillus subtilis = experiment: Antibacterial activity against Bacillus subtilis assessed as inhibition of visible growth incubated for 16 to 18 hrs by CLSI method; type: functional; conditions: time 16-18 hrs, read-out: MIC100
Staphylococcus aureus [6] = experiment: Antibacterial activity against methicillin-resistant Staphylococcus aureus clinical isolate M-13 assessed as inhibition of visible growth incubated for 16 to 18 hrs by CLSI method; type: functional; conditions: time 16-18 hrs, read-out: MIC100
Staphylococcus aureus [7] = experiment: Antibacterial activity against methicillin-resistant Staphylococcus aureus clinical isolate M-15 assessed as inhibition of visible growth incubated for 16 to 18 hrs by CLSI method; type: functional; conditions: time 16-18 hrs, read-out: MIC100
Salmonella enterica [8] = experiment: Antibacterial activity against Salmonella enterica 349812 assessed as inhibition of visible growth incubated for 16 to 18 hrs by CLSI method; type: functional; conditions: time 16-18 hrs, read-out: MIC100
Escherichia coli = experiment: Antibacterial activity against Escherichia coli ATCC25922 assessed as inhibition of visible growth incubated for 16 to 18 hrs by CLSI method; type: functional; conditions: time 16-18 hrs, read-out: MIC100
Staphylococcus aureus [9] = experiment: Antibacterial activity against methicillin-resistant Staphylococcus aureus clinical isolate M-16 assessed as inhibition of visible growth incubated for 16 to 18 hrs by CLSI method; type: functional; conditions: time 16-18 hrs, read-out: MIC100
[10] = system: Stenotrophomonas maltophilia; experiment: Antibacterial activity against Stenotrophomonas maltophilia assessed as inhibition of visible growth incubated for 16 to 18 hrs by CLSI method; type: functional; conditions: time 16-18 hrs, read-out: MIC100
Staphylococcus aureus [11] = experiment: Antibacterial activity against methicillin-resistant Staphylococcus aureus clinical isolate M-12 assessed as inhibition of visible growth incubated for 16 to 18 hrs by CLSI method; type: functional; conditions: time 16-18 hrs, read-out: MIC100
Staphylococcus aureus [12] = experiment: Antibacterial activity against methicillin-resistant Staphylococcus aureus clinical isolate M-20 assessed as inhibition of visible growth incubated for 16 to 18 hrs by CLSI method; type: functional; conditions: time 16-18 hrs, read-out: MIC100
[13] = Hemolytic activity in sheep RBC assessed as hemolysis incubated for 1 hr; type: ADME, cell-based, Ovis aries, Erythrocyte; conditions: sheep red blood cells (erythrocytes)
Enterococcus faecalis = experiment: Antibacterial activity against Enterococcus faecalis ATCC29212 assessed as inhibition of visible growth incubated for 16 to 18 hrs by CLSI method; type: functional; conditions: time 16-18 hrs, read-out: MIC100
Staphylococcus aureus [14] = experiment: Antibacterial activity against methicillin-resistant Staphylococcus aureus clinical isolate M-17 assessed as inhibition of visible growth incubated for 16 to 18 hrs by CLSI method; type: functional; conditions: time 16-18 hrs, read-out: MIC100
Staphylococcus aureus [15] = experiment: Antibacterial activity against methicillin-resistant Staphylococcus aureus clinical isolate M-11 assessed as inhibition of visible growth incubated for 16 to 18 hrs by CLSI method; type: functional; conditions: time 16-18 hrs, read-out: MIC100
Staphylococcus aureus [16] = experiment: Antibacterial activity against Staphylococcus aureus ATCC29213 assessed as inhibition of visible growth incubated for 16 to 18 hrs by CLSI method; type: functional; conditions: time 16-18 hrs, read-out: MIC100

C=CCc1ccc(O)c(-c2cc(CC=C)ccc2OCCC[N+](C)(C)CC(=O)NCCCCC)c1.[Br-]
MIC (Salmonella enterica [1]): 16 µg/mL | MIC (Micrococcus luteus): 1 µg/mL | MIC (Staphylococcus aureus [2]): 2 µg/mL | selectivity ratio [3]: 339 | MIC (Staphylococcus aureus [4]): 2 µg/mL | MIC (Staphylococcus aureus [5]): 2 µg/mL | MIC (Bacillus subtilis): 1 µg/mL | MIC (Staphylococcus aureus [6]): 4 µg/mL | MIC (Staphylococcus aureus [7]): 2 µg/mL | MIC (Salmonella enterica [8]): 32 µg/mL | MIC (Escherichia coli): 8 µg/mL | MIC (Staphylococcus aureus [9]): 2 µg/mL | MIC [10]: 16 µg/mL | MIC (Staphylococcus aureus [11]): 2 µg/mL | MIC (Staphylococcus aureus [12]): 2 µg/mL | HC50 at 1 h [13]: 678 µg/mL | MIC (Enterococcus faecalis): 4 µg/mL | MIC (Staphylococcus aureus [14]): 2 µg/mL | MIC (Staphylococcus aureus [15]): 8 µg/mL | MIC (Staphylococcus aureus [16]): 2 µg/mL

C=CCc1ccc(O)c(-c2cc(CC=C)ccc2OCCCC[N+](C)(C)CC(=O)NCCCCCC)c1.[Br-]
MIC (Salmonella enterica [1]): 64 µg/mL | MIC (Micrococcus luteus): 2 µg/mL | MIC (Staphylococcus aureus [2]): 8 µg/mL | selectivity ratio [3]: 349 | MIC (Staphylococcus aureus [4]): 4 µg/mL | MIC (Staphylococcus aureus [5]): 8 µg/mL | MIC (Bacillus subtilis): 1 µg/mL | MIC (Staphylococcus aureus [6]): 8 µg/mL | MIC (Staphylococcus aureus [7]): 8 µg/mL | MIC (Salmonella enterica [8]): 32 µg/mL | MIC (Escherichia coli): 16 µg/mL | MIC (Staphylococcus aureus [9]): 4 µg/mL | MIC [10]: 32 µg/mL | MIC (Staphylococcus aureus [11]): 8 µg/mL | MIC (Staphylococcus aureus [12]): 4 µg/mL | HC50 at 1 h [13]: 698 µg/mL | MIC (Enterococcus faecalis): 4 µg/mL | MIC (Staphylococcus aureus [14]): 4 µg/mL | MIC (Staphylococcus aureus [15]): 8 µg/mL | MIC (Staphylococcus aureus [16]): 2 µg/mL

C=CCc1ccc(O)c(-c2cc(CC=C)ccc2OCC[N+](C)(C)CC(=O)NCCCCCC)c1.[Br-]
MIC (Salmonella enterica [1]): 64 µg/mL | MIC (Micrococcus luteus): 4 µg/mL | MIC (Staphylococcus aureus [2]): 4 µg/mL | selectivity ratio [3]: 181 | MIC (Staphylococcus aureus [4]): 8 µg/mL | MIC (Staphylococcus aureus [5]): 8 µg/mL | MIC (Bacillus subtilis): 4 µg/mL | MIC (Staphylococcus aureus [6]): 8 µg/mL | MIC (Staphylococcus aureus [7]): 4 µg/mL | MIC (Salmonella enterica [8]): 64 µg/mL | MIC (Escherichia coli): 32 µg/mL | MIC (Staphylococcus aureus [9]): 4 µg/mL | MIC [10]: 64 µg/mL | MIC (Staphylococcus aureus [11]): 8 µg/mL | MIC (Staphylococcus aureus [12]): 4 µg/mL | HC50 at 1 h [13]: 723 µg/mL | MIC (Enterococcus faecalis): 16 µg/mL | MIC (Staphylococcus aureus [14]): 8 µg/mL | MIC (Staphylococcus aureus [15]): 8 µg/mL | MIC (Staphylococcus aureus [16]): 4 µg/mL
